Source: patent US10131652B2, “Pyrimidinyloxy benzene derivatives as herbicides” (E. I. DU PONT DE NEMOURS AND COMPANY, priority 2014, dated 2018)
Where two headings read alike, the source gives them in different places.

Key:
Assay in all cases: Test E pre-/postemergence plant response
Format in all cases: in vivo
[1] = tested on: winter barley (Hordeum vulgare); conditions: scale 0 to 100, read-out: Plant response rating, Barley, Winter; for plant injury at 16 g/ha: 16 g ai/ha; for plant injury at 31 g/ha: 31 g ai/ha; for plant injury at 62 g/ha: 62 g ai/ha; for plant injury at 125 g/ha: 125 g ai/ha
Excerpt: (§1) Seeds of plant species selected from bluegrass (annual bluegrass, Poa annua), blackgrass (Alopecurus myosuroides), canarygrass (Phalaris minor), chickweed (common chickweed, Stellaria media), galium (catchweed bedstraw, Galium aparine), downy bromegrass (Bromus tectorum), field poppy (Papaver rhoeas), field violet (Viola arvensis), green foxtail (Setaria viridis), deadnettle (henbit deadnettle, Lamium amplexicaule), Italian ryegrass (Lolium multiflorum), kochia (Kochia scoparia), lambsquarters (Chenopodium album), oilseed rape (Brassica napus), pigweed (Amaranthus retroflexus), Russian thistle (Salsola iberica), chamomile (scentless chamomile, Matricaria inodora), speedwell (bird's-eye speedwell, Veronica persica), spring barley (Hordeum vulgare), spring wheat (Triticum aestivum), wild buckwheat (Polygonum convolvulus), wild mustard (Sinapis arvensis), wild oat (Avena fatua), wild radish (Raphanus raphanistrum), windgrass (Apera spica-venti), winter barley (Hordeum vulgare), and winter wheat (Triticum aestivum) were planted into a silt loam soil and treated preemergence with test chemicals formulated in a non-phytotoxic solvent mixture which included a surfactant. At the same time, these species were planted in pots containing Redi-Earth® planting medium (Scotts Company, 14111 Scottslawn Road, Marysville, Ohio 43041) comprising spaghnum peat moss, vermiculite, wetting agent and starter nutrients and treated with postemergence applications of the test chemicals formulated in the same manner. Plants ranged in height from 2 to 18 cm (1- to 4-leaf stage).
(§2) Treated plants and controls were maintained in a controlled growth environment for 7 to 21 days after which time all species were compared to controls and visually evaluated. Plant response ratings, summarized in Table E, are based on a scale of 0 to 100 where 0 is no effect and 100 is complete control. A dash (-) response means no test result.

[2] = tested on: chamomile (scentless chamomile, Matricaria inodora); conditions: Tripleurospermum inodorum, post-emergence, Postemergence, scale 0 to 100, read-out: Plant response rating, Chamomile
Excerpt: as §1, §2

[3] = tested on: field poppy (Papaver rhoeas); conditions: scale 0 to 100, read-out: Plant response rating, Field Poppy; for pest or weed control at 16 g/ha: 16 g ai/ha; for pest or weed control at 31 g/ha: 31 g ai/ha; for pest or weed control at 62 g/ha: 62 g ai/ha; for pest or weed control at 125 g/ha: 125 g ai/ha
Excerpt: as §1, §2

[4] = tested on: deadnettle (henbit deadnettle, Lamium amplexicaule); conditions: scale 0 to 100, read-out: Plant response rating, Deadnettle; for pest or weed control at 16 g/ha: 16 g ai/ha; for pest or weed control at 31 g/ha: 31 g ai/ha; for pest or weed control at 62 g/ha: 62 g ai/ha; for pest or weed control at 125 g/ha: 125 g ai/ha
Excerpt: as §1, §2

[5] = tested on: spring wheat (Triticum aestivum); conditions: scale 0 to 100, read-out: Plant response rating, Wheat, Spring; for plant injury at 16 g/ha: 16 g ai/ha; for plant injury at 62 g/ha: 62 g ai/ha; for plant injury at 125 g/ha: 125 g ai/ha
Excerpt: as §1, §2

[6] = tested on: oilseed rape (Brassica napus); conditions: scale 0 to 100, read-out: Plant response rating, Oilseed Rape; for plant injury at 16 g/ha: 16 g ai/ha; for plant injury at 31 g/ha: 31 g ai/ha; for plant injury at 62 g/ha: 62 g ai/ha; for plant injury at 125 g/ha: 125 g ai/ha
Excerpt: as §1, §2

[7] = tested on: wild buckwheat (Polygonum convolvulus); conditions: Fallopia convolvulus, scale 0 to 100, read-out: Plant response rating, Buckwheat, Wild; for pest or weed control at 16 g/ha: 16 g ai/ha; for pest or weed control at 31 g/ha: 31 g ai/ha; for pest or weed control at 62 g/ha: 62 g ai/ha; for pest or weed control at 125 g/ha: 125 g ai/ha
Excerpt: as §1, §2

[8] = tested on: downy bromegrass (Bromus tectorum); conditions: scale 0 to 100, read-out: Plant response rating, Bromegrass, Downy; for pest or weed control at 16 g/ha: 16 g ai/ha; for pest or weed control at 31 g/ha: 31 g ai/ha; for pest or weed control at 62 g/ha: 62 g ai/ha; for pest or weed control at 125 g/ha: 125 g ai/ha
Excerpt: as §1, §2

[9] = tested on: windgrass (Apera spica-venti); conditions: scale 0 to 100, read-out: Plant response rating, Windgrass; for pest or weed control at 16 g/ha: 16 g ai/ha; for pest or weed control at 62 g/ha: 62 g ai/ha; for pest or weed control at 125 g/ha: 125 g ai/ha
Excerpt: as §1, §2

wild oat (Avena fatua) = conditions: scale 0 to 100, read-out: Plant response rating, Oat, Wild; for pest or weed control at 16 g/ha: 16 g ai/ha; for pest or weed control at 31 g/ha: 31 g ai/ha; for pest or weed control at 62 g/ha: 62 g ai/ha; for pest or weed control at 125 g/ha: 125 g ai/ha
Excerpt: as §1, §2

[10] = tested on: canarygrass (Phalaris minor); conditions: scale 0 to 100, read-out: Plant response rating, Canarygrass; for pest or weed control at 16 g/ha: 16 g ai/ha; for pest or weed control at 31 g/ha: 31 g ai/ha; for pest or weed control at 62 g/ha: 62 g ai/ha; for pest or weed control at 125 g/ha: 125 g ai/ha
Excerpt: as §1, §2

[11] = post-emergence, 31 g ai/ha, Postemergence

`Fc1cccc(Oc2ncc(Cl)cn2)c1-c1cc(C(F)F)on1` [Compound 55, 5-chloro-2-[2-[5-(difluoromethyl)-3-isoxazolyl]-3-fluorophenoxy]pyrimidine] was tested, and the plant injury at 16 g/ha ([1]; post-emergence, Postemergence) was 0%, the plant injury at 31 g/ha ([1]; post-emergence, Postemergence) was 0% and the plant injury at 62 g/ha ([1]; post-emergence, Postemergence) was 5%. The plant injury at 125 g/ha ([1]; post-emergence, Postemergence) was 10%, the plant injury at 16 g/ha ([1]; pre-emergence, Preemergence) was 5% and the plant injury at 31 g/ha ([1]; pre-emergence, Preemergence) was 10%. It also gave a plant injury at 62 g/ha ([1]; pre-emergence, Preemergence) of 10%, a plant injury at 125 g/ha ([1]; pre-emergence, Preemergence) of 35% and a pest or weed control at 16 g/ha ([2]; 16 g ai/ha) of 5%. It also gave a pest or weed control at 31 g/ha ([2]; 31 g ai/ha) of 5%, a pest or weed control at 62 g/ha ([2]; 62 g ai/ha) of 5% and a pest or weed control at 125 g/ha ([2]; 125 g ai/ha) of 5%. It also gave a pest or weed control at 16 g/ha ([3]; post-emergence, Postemergence) of 85%, a pest or weed control at 31 g/ha ([3]; post-emergence, Postemergence) of 90% and a pest or weed control at 62 g/ha ([3]; post-emergence, Postemergence) of 100%. For the same compound, the pest or weed control at 125 g/ha ([3]; post-emergence, Postemergence) was 95%, the pest or weed control at 16 g/ha ([3]; pre-emergence, Preemergence) was 100% and the pest or weed control at 31 g/ha ([3]; pre-emergence, Preemergence) was 100%. It also gave a pest or weed control at 62 g/ha ([3]; pre-emergence, Preemergence) of 100%, a pest or weed control at 125 g/ha ([3]; pre-emergence, Preemergence) of 100% and a pest or weed control at 16 g/ha ([4]; post-emergence, Postemergence) of 20%. It also gave a pest or weed control at 31 g/ha ([4]; post-emergence, Postemergence) of 50%, a pest or weed control at 62 g/ha ([4]; post-emergence, Postemergence) of 70% and a pest or weed control at 125 g/ha ([4]; post-emergence, Postemergence) of 80%. It also gave a pest or weed control at 16 g/ha ([4]; pre-emergence, Preemergence) of 0%, a pest or weed control at 31 g/ha ([4]; pre-emergence, Preemergence) of 0% and a pest or weed control at 62 g/ha ([4]; pre-emergence, Preemergence) of 0%. It also gave a pest or weed control at 125 g/ha ([4]; pre-emergence, Preemergence) of 0%, a plant injury at 16 g/ha ([5]; post-emergence, Postemergence) of 5% and a plant injury at 31 g/ha [5, 11] of 15%. For the same compound, the plant injury at 62 g/ha ([5]; post-emergence, Postemergence) was 25%, the plant injury at 125 g/ha ([5]; post-emergence, Postemergence) was 45% and the plant injury at 16 g/ha ([5]; pre-emergence, Preemergence) was 15%. It also gave a plant injury at 62 g/ha ([5]; pre-emergence, Preemergence) of 15%, a plant injury at 125 g/ha ([5]; pre-emergence, Preemergence) of 35% and a plant injury at 16 g/ha ([6]; post-emergence, Postemergence) of 75%. The plant injury at 31 g/ha ([6]; post-emergence, Postemergence) was 75%, the plant injury at 62 g/ha ([6]; post-emergence, Postemergence) was 90% and the plant injury at 125 g/ha ([6]; post-emergence, Postemergence) was 95%. The plant injury at 16 g/ha ([6]; pre-emergence, Preemergence) was 20%, the plant injury at 31 g/ha ([6]; pre-emergence, Preemergence) was 100% and the plant injury at 62 g/ha ([6]; pre-emergence, Preemergence) was 100%. For the same compound, the plant injury at 125 g/ha ([6]; pre-emergence, Preemergence) was 100%, the pest or weed control at 16 g/ha ([7]; post-emergence, Postemergence) was 65% and the pest or weed control at 31 g/ha ([7]; post-emergence, Postemergence) was 95%. It also gave a pest or weed control at 62 g/ha ([7]; post-emergence, Postemergence) of 95%, a pest or weed control at 125 g/ha ([7]; post-emergence, Postemergence) of 95% and a pest or weed control at 16 g/ha ([7]; pre-emergence, Preemergence) of 65%. It also gave a pest or weed control at 31 g/ha ([7]; pre-emergence, Preemergence) of 100%, a pest or weed control at 62 g/ha ([7]; pre-emergence, Preemergence) of 100% and a pest or weed control at 125 g/ha ([7]; pre-emergence, Preemergence) of 100%. The pest or weed control at 16 g/ha ([8]; post-emergence, Postemergence) was 5%, the pest or weed control at 31 g/ha ([8]; post-emergence, Postemergence) was 0% and the pest or weed control at 62 g/ha ([8]; post-emergence, Postemergence) was 10%. For the same compound, the pest or weed control at 125 g/ha ([8]; post-emergence, Postemergence) was 10%, the pest or weed control at 16 g/ha ([8]; pre-emergence, Preemergence) was 20% and the pest or weed control at 31 g/ha ([8]; pre-emergence, Preemergence) was 20%. It also gave a pest or weed control at 62 g/ha ([8]; pre-emergence, Preemergence) of 55%, a pest or weed control at 125 g/ha ([8]; pre-emergence, Preemergence) of 55% and a pest or weed control at 16 g/ha ([9]; post-emergence, Postemergence) of 5%. It also gave a pest or weed control at 31 g/ha [9, 11] of 10%, a pest or weed control at 62 g/ha ([9]; post-emergence, Postemergence) of 25% and a pest or weed control at 125 g/ha ([9]; post-emergence, Postemergence) of 40%. It also gave a pest or weed control at 16 g/ha ([9]; pre-emergence, Preemergence) of 5%, a pest or weed control at 62 g/ha ([9]; pre-emergence, Preemergence) of 100% and a pest or weed control at 125 g/ha ([9]; pre-emergence, Preemergence) of 100%. For the same compound, the pest or weed control at 16 g/ha (wild oat (Avena fatua); post-emergence, Postemergence) was 10%, the pest or weed control at 31 g/ha (wild oat (Avena fatua); post-emergence, Postemergence) was 15% and the pest or weed control at 62 g/ha (wild oat (Avena fatua); post-emergence, Postemergence) was 40%. It also gave a pest or weed control at 125 g/ha (wild oat (Avena fatua); post-emergence, Postemergence) of 50%, a pest or weed control at 16 g/ha (wild oat (Avena fatua); pre-emergence, Preemergence) of 0% and a pest or weed control at 31 g/ha (wild oat (Avena fatua); pre-emergence, Preemergence) of 15%. The pest or weed control at 62 g/ha (wild oat (Avena fatua); pre-emergence, Preemergence) was 35%, the pest or weed control at 125 g/ha (wild oat (Avena fatua); pre-emergence, Preemergence) was 45% and the pest or weed control at 16 g/ha ([10]; post-emergence, Postemergence) was 10%. The pest or weed control at 31 g/ha ([10]; post-emergence, Postemergence) was 20%, the pest or weed control at 62 g/ha ([10]; post-emergence, Postemergence) was 30% and the pest or weed control at 125 g/ha ([10]; post-emergence, Postemergence) was 30%. It also gave a pest or weed control at 16 g/ha ([10]; pre-emergence, Preemergence) of 10%, a pest or weed control at 31 g/ha ([10]; pre-emergence, Preemergence) of 20% and a pest or weed control at 62 g/ha ([10]; pre-emergence, Preemergence) of 100%. The pest or weed control at 125 g/ha ([10]; pre-emergence, Preemergence) was 100%.
